Several values for one entry are separate records, joined by “and”; a condition that tells them apart may be missing. Equal entries are not always repeated. Where two headings read alike, the source gives them in different places.
Columns and labels:
[1] = target: T1, ΔCcMreBdh (Caulobacter vibrioides, UniProt A0A0H3C7V4, F102S/V103G); assay: Isothermal titration calorimetry of nucleotides and MP265 binding to MreB; parameters: species or system Caulobacter crescentus; conditions: ITC
T1 construct: added initiator Met (M before I9) (N); made in house; host or cells: E. coli C41(DE3) (printed for the sister construct ΔCcMreBh)
T1 sequence (A0A0H3C7V4 9-347 F102S/V103G): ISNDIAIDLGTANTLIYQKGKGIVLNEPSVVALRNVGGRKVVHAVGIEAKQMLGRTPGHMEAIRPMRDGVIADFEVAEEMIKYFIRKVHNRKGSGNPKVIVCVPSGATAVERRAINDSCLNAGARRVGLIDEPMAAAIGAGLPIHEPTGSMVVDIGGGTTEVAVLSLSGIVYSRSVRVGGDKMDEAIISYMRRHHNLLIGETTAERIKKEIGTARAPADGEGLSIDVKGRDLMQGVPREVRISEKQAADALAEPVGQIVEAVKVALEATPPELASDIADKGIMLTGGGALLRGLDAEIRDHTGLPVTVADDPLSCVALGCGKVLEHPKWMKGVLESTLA
Description: […] Samples were stored by the instrument in 96-well microtitre plates at 5°C prior to loading and performing the ITC titrations. […] Heat from the pre-injection was not used during fitting. Data were analysed manually in the Origin software package provided by the manufacturer and fit to a single set of binding sites model. […] The small endothermic heats of each injection in these experiments were fitted to a simple linear function that was subsequently subtracted from the equivalent integrated heats of the experiment when protein was present.

[2] = system: cell morphology; parameters: method as in earlier work; conditions: ref Iwai et al., 2002; Gitai et al., 2005; Bean et al., 2009; Takacs et al., 2010; cited from earlier work
[3] = 25°C, ligand titrated into ΔCcMreBdh alone
[4] = 25°C, ligand titrated into ΔCcMreBdh alone, read-out: Kd

Compound	ΔH [1, 3] [kcal/mol]	Kd [1, 4]	effect on cell morphology [2]	also measured
Nc1ncnc2c1ncn2[C@@H]1O[C@H](COP(=O)(O)OP(=O)(O)O)[C@@H](O)[C@H]1O [ADP]	-5.3	~4 µM and 4 µM		
N=C(N)SCc1ccc(Cl)c(Cl)c1 [A22, S-(3,4-dichlorobenzyl) isothiourea]			perturb cell morphology reminiscent of an MreB knock-out	
Nc1ncnc2c1ncn2[C@@H]1O[C@H](COP(=O)(O)OP(=O)(O)NP(=O)(O)O)[C@@H](O)[C@H]1O [AMPPNP]	-4.4	~65 µM and 65 µM		
N=C(N)SCc1ccc(Cl)cc1 [MP265]		~27 µM and 26 µM and 27 µM	perturb cell morphology reminiscent of an MreB knock-out	Kd ([1]; 15°C, in the presence of 0.5 mM ADP, data not shown, read-out: affinity (Kd)): 0.6 µM; Kd ([1]; 15°C, in the presence of 0.5 mM AMPPNP, data not shown, read-out: affinity (Kd)): 0.7 µM; Kd ([1]; 15°C, ΔCcMreBdh alone, data not shown, read-out: affinity (Kd)): 19 µM; ΔH ([1]; 25°C, in the presence of 0.5 mM ADP): -12 kcal/mol; Kd ([1]; 25°C, in the presence of 0.5 mM ADP, read-out: Kd): 1.3 µM; ΔH ([1]; 25°C, in the presence of 0.5 mM AMPPNP): -11 kcal/mol; Kd ([1]; 25°C, in the presence of 0.5 mM AMPPNP, read-out: Kd): 1.7 µM; increase of binding affinity in the presence of di- and trinucleotide phosphates ([1]; with nucleotide versus ΔCcMreBdh alone): 20–30 fold
Nc1ncnc2c1ncn2[C@@H]1O[C@H](COP(=O)(O)OP(=O)(O)OP(=O)(O)O)[C@@H](O)[C@H]1O [ATP]	-6.0	~1 µM and 1 µM		
Nc1ncnc2c1ncn2[C@@H]1O[C@H](CO[P@](=O)(O)O[P@](=O)(O)O[P@@](=O)(O)S)[C@@H](O)[C@H]1O [ATPγS]	-7.7			Kd ([1]; Kd, 25°C, ligand titrated into ΔCcMreBdh alone): ~4.6 µM and 4.5 µM
